Laboratory results reported in patent US20230303549A1, “SUBSTITUTED HETEROARYLOXYPYRIDINES, THE SALTS THEREOF AND THEIR USE AS HERBICIDAL AGENTS” (Bayer Aktiengesellschaft, priority 2020, published 2023).

Assays:
Format in all cases: in vivo
[1] = system: Amaranthus retroflexus (AMARE); experiment: Pre-emergence herbicide efficacy at 320 g/ha, greenhouse pot test; details: visual scoring vs untreated control after about 3 weeks
Source text: (§1) Seeds of mono- and dicotyledonous weed plants were placed in plastic pots in sandy loam soil (doubly sown with in each case one species of mono- or dicotyledonous weed plants per pot) and covered with soil. The compounds of the invention, formulated in the form of wettable powders (WP) or as emulsion concentrates (EC), were then applied onto the surface of the covering soil as aqueous suspension or emulsion with addition of 0.5% additive at a water application rate of 600 liters per hectare (converted). After the treatment, the pots were placed in a greenhouse and kept under good growth conditions for the test plants. After about 3 weeks, the effect of the preparations was scored visually in comparison with untreated controls as percentages. For example, 100% activity=the plants have died, 0% activity=like control plants. Tables C1 to C12 below show the effects of selected compounds of the general formula (I) according to Table 1 on various harmful plants and an application rate corresponding to 320 g/ha, which were obtained by the experimental procedure mentioned above.

[2] = system: Abutilon theophrasti (ABUTH); experiment: as above; details: visual scoring vs untreated control after about 3 weeks
Source text: as §1

Stellaria media (STEME) [3] = experiment: as above; details: visual scoring vs untreated control after about 3 weeks
Source text: as §1

Poa annua (POAAN) [4] = experiment: as above; details: visual scoring vs untreated control after about 3 weeks
Source text: as §1

[5] = system: Amaranthus retroflexus (AMARE); experiment: Post-emergence herbicidal efficacy at 320 g/ha, greenhouse pot test; details: visual rating vs untreated control after about 3 weeks
Description: (§2) Seeds of mono- and dicotyledonous weed plants were placed in plastic pots in sandy loam soil (doubly sown with in each case one species of mono- or dicotyledonous weed plants per pot), covered with soil and cultivated in a greenhouse under controlled growth conditions. 2 to 3 weeks after sowing, the test plants were treated at the one-leaf stage. The compounds of the invention, formulated in the form of wettable powders (WP) or as emulsion concentrates (EC), were applied onto the green parts of the plants as aqueous suspension or emulsion with addition of 0.5% additive at a water application rate of 600 liters per hectare (converted). After the test plants had been kept in the greenhouse under optimum growth conditions for about 3 weeks, the activity of the preparations was rated visually in comparison to untreated controls. For example, 100% activity=the plants have died, 0% activity=like control plants. Tables […] 11 below show the effects of selected compounds of the general formula (I) according to Table 1 on various harmful plants and an application rate corresponding to 320 g/ha, which were obtained by the experimental procedure mentioned above.

Veronica persica (VERPE) [6] = experiment: as above; details: 320 g/ha, visual rating vs untreated control after about 3 weeks
Description: as §2

Stellaria media (STEME) [7] = experiment: as above; details: visual rating vs untreated control after about 3 weeks
Description: as §2

Poa annua (POAAN) [8] = experiment: as above; details: visual rating vs untreated control after about 3 weeks
Description: as §2

Bassia scoparia (KCHSC) = experiment: Pre-emergence herbicide efficacy at 320 g/ha, greenhouse pot test; details: dosage 1280 g/ha in Table C6, visual scoring after about 3 weeks
Source text: as §1

[9] = system: Matricaria inodora (MATIN); experiment: as above; details: visual scoring vs untreated control after about 3 weeks
Source text: as §1

[10] = system: Echinochloa crus-galli (ECHCG); experiment: as above; details: visual scoring vs untreated control after about 3 weeks
Source text: as §1

[11] = system: Abutilon theophrasti (ABUTH); experiment: Post-emergence herbicidal efficacy at 320 g/ha, greenhouse pot test; details: visual rating vs untreated control after about 3 weeks
Description: as §2

Veronica persica (VERPE) [12] = experiment: Pre-emergence herbicide efficacy at 320 g/ha, greenhouse pot test; details: visual scoring vs untreated control after about 3 weeks
Source text: as §1

Setaria viridis (SETVI) = experiment: as above; details: visual scoring vs untreated control after about 3 weeks
Source text: as §1

| Compound | Pre-emergence efficacy against Amaranthus retroflexus (AMARE) [1] | Pre-emergence efficacy against Abutilon theophrasti (ABUTH) [2] | Pre-emergence efficacy against Stellaria media (STEME) (Stellaria media (STEME) [3]) | Pre-emergence efficacy against Poa annua (POAAN) (Poa annua (POAAN) [4]) | Post-emergence efficacy against Amaranthus retroflexus (AMARE) [5] | Post-emergence efficacy against Veronica persica (VERPE) (Veronica persica (VERPE) [6]) | Post-emergence action against Stellaria media (STEME) (Stellaria media (STEME) [7]) | Post-emergence efficacy against Poa annua (POAAN) (Poa annua (POAAN) [8]) | Pre-emergence efficacy against Bassia scoparia (KCHSC) (Bassia scoparia (KCHSC)) | Pre-emergence efficacy against Matricaria inodora (MATIN) [9] | Pre-emergence efficacy against Echinochloa crus-galli (ECHCG) [10] | Post-emergence efficacy against Abutilon theophrasti (ABUTH) [11] | Pre-emergence efficacy against Veronica persica (VERPE) (Veronica persica (VERPE) [12]) | Pre-emergence efficacy against Setaria viridis (SETVI) (Setaria viridis (SETVI)) |
| --- | --- | --- | --- | --- | --- | --- | --- | --- | --- | --- | --- | --- | --- | --- |
| Cc1ccc(-c2cc(C(F)F)on2)c(Oc2ncc(Cl)cn2)n1 [Example I-12] | 100% | 90% | 90% | 100% |  |  |  |  |  |  |  |  |  |  |
| Cc1ccc(-c2cc(C(F)F)on2)c(Oc2ncc(F)cn2)n1 [Example I-13] |  |  |  |  | 90% |  |  |  |  |  |  |  |  |  |
| Cc1cc(C)c(-c2cc(C(F)F)no2)c(Oc2ncc(C#N)cn2)n1 [Example I-46] | 90% | 90% | 90% |  | 100% | 100% | 100% | 90% | 90% | 100% |  |  |  |  |
| Cc1cc(C)c(-c2cc(C3CC3)no2)c(Oc2ncc(Cl)cc2F)n1 [Example I-180] | 100% |  | 100% | 100% |  | 90% | 100% |  |  | 100% |  |  |  |  |
| Cc1cc(C)c(-c2cc(CC3CC3)no2)c(Oc2ncc(F)cn2)n1 [Example I-200] | 100% | 90% | 100% | 90% | 90% | 90% | 90% |  |  | 90% | 90% |  |  |  |
| Cc1cc(C)c(-c2cc(CC3CC3)no2)c(Oc2ncc(Cl)cn2)n1 [Example I-201] | 90% | 90% | 90% | 100% |  | 90% | 90% |  | 90% |  |  | 90% |  |  |
| Cc1cc(C)c(-c2cc(CC3CC3)no2)c(Oc2ncc(Cl)cc2F)n1 [Example I-202] | 90% |  | 100% |  |  |  | 90% | 100% |  |  |  |  |  |  |
| Cc1cc(C)c(-n2cccn2)c(Oc2ncc(F)cn2)n1 [Example I-244] |  |  |  |  |  |  |  |  | 90% |  |  |  | 90% |  |
| Cc1cc(C)c(-n2cccn2)c(Oc2ncc(Cl)cn2)n1 [Example I-245] | 100% | 90% | 100% |  |  |  |  |  | 100% | 90% |  |  |  |  |
| Cc1cc(C)c(-n2cc(Br)cn2)c(Oc2ncc(Cl)cn2)n1 [Example I-278] |  | 100% | 100% |  | 100% | 90% | 90% |  | 100% |  | 100% |  | 100% |  |
| Cc1cc(C)c(-c2cc(C(F)F)no2)c(Oc2ncc(Cl)cc2Cl)n1 [Example I-288] |  |  | 90% | 90% | 100% | 90% | 90% | 90% | 90% |  |  |  |  |  |
| Cc1cc(C)c(-c2cc(C(F)F)no2)c(Oc2ncc(F)cc2C#N)n1 [Example I-289] |  |  | 90% |  | 100% | 90% | 90% | 90% | 90% |  |  |  |  |  |
| Cc1cc(C)c(-c2cc(C(F)F)no2)c(Oc2ncc(Cl)cc2C#N)n1 [Example I-290] |  |  |  |  | 100% | 90% |  |  |  |  |  |  |  |  |
| Cc1cc(C)c(-c2cc(C(F)F)no2)c(Oc2ncc(Br)cc2C#N)n1 [Example I-291] |  |  |  |  | 90% | 90% |  |  | 90% |  |  |  |  |  |
| Cc1cc(C)c(-c2cc(C3CC3)no2)c(Oc2ncc(Br)cn2)n1 [Example I-296] | 100% | 100% | 100% | 100% | 90% | 100% | 100% | 90% | 100% | 100% | 90% |  | 90% | 100% |
| Cc1cc(C)c(-c2cc(C3(C)CC3)no2)c(Oc2ncc(Cl)cn2)n1 [Example I-297] | 90% | 90% | 100% |  |  | 90% |  |  |  | 100% |  |  |  |  |
| Cc1cc(C)c(-c2cc(C3(C)CC3)no2)c(Oc2ncc(Br)cn2)n1 [Example I-298] | 90% |  | 100% |  |  | 90% | 90% |  |  | 90% |  | 90% |  |  |
| Cc1cc(C)c(-c2cc(C3(C)CC3)no2)c(Oc2ncc(F)cn2)n1 [Example I-299] | 100% | 90% | 100% | 90% |  | 90% | 90% |  |  |  | 90% | 90% |  | 90% |
| Cc1cc(C)c(-c2cc(CC3CC3)no2)c(Oc2ncc(Br)cn2)n1 [Example I-300] |  |  | 90% |  |  |  | 90% |  |  |  |  |  |  |  |
| Cc1cc(C)c(-c2cc(C3(C)CC3)no2)c(Oc2ncc(Cl)cc2F)n1 [Example I-301] |  |  |  |  |  | 90% | 90% |  |  |  |  |  |  |  |
